Measurements as given in paper PMC9241959 (Chemical Science, 2022).

Target: Phaseolus vulgaris erythroagglutinin (PHA-E) (Phaseolus vulgaris, UniProt P05088)
Assay: glycan microarray, fluorescence
Type: binding
Settings: labelled compound: immobilised AEAB conjugate at reducing end

Chain of Phaseolus vulgaris erythroagglutinin (PHA-E) (P05088 22-275 limits assumed): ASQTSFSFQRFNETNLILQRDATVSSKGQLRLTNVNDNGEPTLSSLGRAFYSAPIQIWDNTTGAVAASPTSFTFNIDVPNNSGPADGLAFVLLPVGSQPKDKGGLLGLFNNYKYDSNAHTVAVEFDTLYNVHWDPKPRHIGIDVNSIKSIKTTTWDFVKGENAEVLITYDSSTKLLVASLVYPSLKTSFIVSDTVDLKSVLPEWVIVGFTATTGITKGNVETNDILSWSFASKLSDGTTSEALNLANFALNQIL

With CC(=O)N[C@H]1[C@H](O[C@H]2[C@H](O)[C@@H](NC(C)=O)C(O)O[C@@H]2CO)O[C@H](CO)[C@@H](O[C@@H]2O[C@H](CO[C@H]3O[C@H](CO)[C@@H](O)[C@H](O)[C@@H]3O[C@@H]3O[C@H](CO)[C@@H](O)[C@H](O)[C@H]3NC(C)=O)[C@@H](O[C@@H]3O[C@H](CO)[C@@H](O)[C@H](O)[C@H]3NC(C)=O)[C@H](O[C@H]3O[C@H](CO)[C@@H](O)[C@H](O)[C@@H]3O[C@@H]3O[C@H](CO)[C@@H](O)[C@H](O)[C@H]3NC(C)=O)[C@@H]2O)[C@@H]1O (stereo partly shown) [compound 1, agalacto bisected N-glycan 1] the “RFU at 1 ug/mL lectin” value was 9197 RFU.
